Measurements as given in patent US20140249135A1, “PIM KINASE INHIBITORS AND METHODS OF THEIR USE” (NOVARTIS AG, priority 2007, published 2014).
Where two headings read alike, the source gives them in different places.

Key:
[1] = target: KDR kinase (Homo sapiens, UniProt P35968); assay: KDR AlphaScreen assay; settings: KDR IC50 (μM)
[2] = system: PC3 cells; assay: Cell proliferation assay (CellTiter-Glo), PC3; type: cell-based; settings: Homo sapiens, PC-3
Description: HEL 92.1.7 cells (ATTC No. TIB-180, an erythroleukemia line derived from malignant peripheral blood), MV4-11 cells (ATCC No. CRL-9591, a human acute monocytic leukemia line) and PC3 cells (ATCC No. CRL-1435, a human prostatic adenocarcinoma line) were cultured in RPMI1640 supplemented with 10% FBS, sodium pyruvate and antibiotics. Cells were plated in the same medium at a density of 1000 cells per well into 96 well tissue culture plates, with outside wells vacant, on the day of assay.
(§1) Test compounds supplied in DMSO were diluted into DMSO at 500 times the desired final concentrations before dilution into culture media to 2 times final concentrations. Equal volumes of 2× compounds were added to the cells in 96 well plates and incubated at 37° C. for 3 days.
(§2) After 3 days plates were equilibrated to room temperature and equal volume of CellTiter-Glow Reagent (Promega) was added to the culture wells. The plates were agitated briefly and luminescent signal was measured with luminometer. The percent inhibition of the signal seen in cells treated with DMSO alone vs. cells treated with control compound was calculated and used to determine EC50 values (i.e., the concentration of a test compound that is required to obtain 50% of the maximum effect in the cells) for tested compounds, as shown in Example 763.

[3] = target: T1, human full length PKCE enzyme (Homo sapiens, UniProt Q02156); assay: In vitro PKCE assay; type: biochemical; settings: 10 nM enzyme, 40 uM peptide substrate, 20 uM ATP, KinaseGlo Plus readout; read-out: PKCε IC50
T1 construct: human full length PKCE enzyme purchased from InVitrogen; purchased InVitrogen
T1 sequence (Q02156 1-737): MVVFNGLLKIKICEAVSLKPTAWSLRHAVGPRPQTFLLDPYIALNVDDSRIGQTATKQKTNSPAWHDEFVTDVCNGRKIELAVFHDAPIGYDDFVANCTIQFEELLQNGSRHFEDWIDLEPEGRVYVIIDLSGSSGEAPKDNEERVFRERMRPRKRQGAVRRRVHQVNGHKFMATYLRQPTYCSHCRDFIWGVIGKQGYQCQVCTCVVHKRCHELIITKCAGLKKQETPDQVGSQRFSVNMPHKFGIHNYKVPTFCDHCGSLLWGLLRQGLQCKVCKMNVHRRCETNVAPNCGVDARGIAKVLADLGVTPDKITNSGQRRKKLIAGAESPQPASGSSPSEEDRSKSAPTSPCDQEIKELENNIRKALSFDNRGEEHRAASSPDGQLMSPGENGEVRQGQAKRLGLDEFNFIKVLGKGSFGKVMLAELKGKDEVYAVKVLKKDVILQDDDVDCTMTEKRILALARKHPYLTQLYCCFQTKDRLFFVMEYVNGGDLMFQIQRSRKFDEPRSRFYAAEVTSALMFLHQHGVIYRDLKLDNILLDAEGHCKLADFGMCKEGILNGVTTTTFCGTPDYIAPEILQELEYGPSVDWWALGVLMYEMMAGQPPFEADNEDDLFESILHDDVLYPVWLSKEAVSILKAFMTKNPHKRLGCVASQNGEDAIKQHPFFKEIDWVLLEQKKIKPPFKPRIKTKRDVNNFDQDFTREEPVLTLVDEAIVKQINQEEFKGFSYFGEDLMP

[4] = system: HEL 92.1.7 cells; assay: Cell proliferation assay (CellTiter-Glo), HEL 92.1.7; type: cell-based; settings: Homo sapiens, read-out: EC50 (μM) HEL 92.1.7
Outline: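 CellTiter-Glo luminescence was read after 3-day compound exposure at 37 °C of cells plated at 1000/well in RPMI1640 with 10% FBS. Signal was normalised between DMSO-treated and control-compound-treated wells. EC50 is the concentration giving 50% of maximal effect.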

[5] = target: Pim3 kinase (Homo sapiens, UniProt Q86V86); assay: Pim3 ATP depletion assay; type: biochemical
[6] = target: Pim2 kinase (Homo sapiens, UniProt Q9P1W9); assay: Pim2 ATP depletion assay; type: biochemical;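 also: Luciferase-based luminescent readout of ATP remaining after PIM2 phosphorylates a BAD peptide, final 5 nM enzyme, 4 µM ATP, 10 µM peptide, 2.5% DMSO, run to roughly half ATP consumption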
[7] = system: KMS 11 (human myeloma cell line); assay: Cell proliferation assay (CellTiter-Glo), KMS 11; type: cell-based; settings: KMS11 cells
Description: (§3) KMS 11 (human myeloma cell line), were cultured in IMDM supplemented with 10% FBS, sodium pyruvate and antibiotics. Cells were plated in the same medium at a density of 2000 cells per well into 96 well tissue culture plates, with outside wells vacant, on the day of assay. MM1.s (human myeloma cell line), were cultured in RPMI1640 supplemented with 10% FBS, sodium pyruvate and antibiotics. Cells were plated in the same medium at a density of 5000 cells per well into 96 well tissue culture plates, with outside wells vacant, on the day of assay.
as §1, §2

[8] = target: Pim1 kinase (Homo sapiens, UniProt P11309); assay: Pim1 ATP depletion assay; type: biochemical; settings: Pim1 ATP depletion assay;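 also: Luciferase-luciferin luminescence readout of residual ATP after PIM1 transfers phosphate to a peptide substrate, 40 µM ATP added, reaction run to roughly half ATP consumption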
[9] = system: MM1.s (human myeloma cell line); assay: Cell proliferation assay (CellTiter-Glo), MM1.s; type: cell-based; settings: MM1.s cells
Description: as §3, §1, §2

Chain of Pim1 kinase (P11309 whole entry): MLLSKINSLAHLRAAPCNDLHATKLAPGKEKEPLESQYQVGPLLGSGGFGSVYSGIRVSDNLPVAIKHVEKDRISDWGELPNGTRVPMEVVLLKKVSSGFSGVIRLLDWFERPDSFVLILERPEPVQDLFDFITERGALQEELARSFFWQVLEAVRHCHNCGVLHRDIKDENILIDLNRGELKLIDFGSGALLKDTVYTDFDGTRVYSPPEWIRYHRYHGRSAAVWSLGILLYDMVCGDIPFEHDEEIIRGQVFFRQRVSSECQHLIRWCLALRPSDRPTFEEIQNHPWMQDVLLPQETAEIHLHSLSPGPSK
Chain of Pim2 kinase (Q9P1W9 whole entry): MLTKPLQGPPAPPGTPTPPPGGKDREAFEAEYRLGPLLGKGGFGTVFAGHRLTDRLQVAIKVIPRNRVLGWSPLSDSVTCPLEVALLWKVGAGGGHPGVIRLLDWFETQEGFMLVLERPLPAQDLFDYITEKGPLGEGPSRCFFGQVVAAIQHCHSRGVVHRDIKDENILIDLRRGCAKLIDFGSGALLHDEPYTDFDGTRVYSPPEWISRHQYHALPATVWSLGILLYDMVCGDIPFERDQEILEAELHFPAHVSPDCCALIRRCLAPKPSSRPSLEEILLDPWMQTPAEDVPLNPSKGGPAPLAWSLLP
Chain of KDR kinase (P35968 20-1356): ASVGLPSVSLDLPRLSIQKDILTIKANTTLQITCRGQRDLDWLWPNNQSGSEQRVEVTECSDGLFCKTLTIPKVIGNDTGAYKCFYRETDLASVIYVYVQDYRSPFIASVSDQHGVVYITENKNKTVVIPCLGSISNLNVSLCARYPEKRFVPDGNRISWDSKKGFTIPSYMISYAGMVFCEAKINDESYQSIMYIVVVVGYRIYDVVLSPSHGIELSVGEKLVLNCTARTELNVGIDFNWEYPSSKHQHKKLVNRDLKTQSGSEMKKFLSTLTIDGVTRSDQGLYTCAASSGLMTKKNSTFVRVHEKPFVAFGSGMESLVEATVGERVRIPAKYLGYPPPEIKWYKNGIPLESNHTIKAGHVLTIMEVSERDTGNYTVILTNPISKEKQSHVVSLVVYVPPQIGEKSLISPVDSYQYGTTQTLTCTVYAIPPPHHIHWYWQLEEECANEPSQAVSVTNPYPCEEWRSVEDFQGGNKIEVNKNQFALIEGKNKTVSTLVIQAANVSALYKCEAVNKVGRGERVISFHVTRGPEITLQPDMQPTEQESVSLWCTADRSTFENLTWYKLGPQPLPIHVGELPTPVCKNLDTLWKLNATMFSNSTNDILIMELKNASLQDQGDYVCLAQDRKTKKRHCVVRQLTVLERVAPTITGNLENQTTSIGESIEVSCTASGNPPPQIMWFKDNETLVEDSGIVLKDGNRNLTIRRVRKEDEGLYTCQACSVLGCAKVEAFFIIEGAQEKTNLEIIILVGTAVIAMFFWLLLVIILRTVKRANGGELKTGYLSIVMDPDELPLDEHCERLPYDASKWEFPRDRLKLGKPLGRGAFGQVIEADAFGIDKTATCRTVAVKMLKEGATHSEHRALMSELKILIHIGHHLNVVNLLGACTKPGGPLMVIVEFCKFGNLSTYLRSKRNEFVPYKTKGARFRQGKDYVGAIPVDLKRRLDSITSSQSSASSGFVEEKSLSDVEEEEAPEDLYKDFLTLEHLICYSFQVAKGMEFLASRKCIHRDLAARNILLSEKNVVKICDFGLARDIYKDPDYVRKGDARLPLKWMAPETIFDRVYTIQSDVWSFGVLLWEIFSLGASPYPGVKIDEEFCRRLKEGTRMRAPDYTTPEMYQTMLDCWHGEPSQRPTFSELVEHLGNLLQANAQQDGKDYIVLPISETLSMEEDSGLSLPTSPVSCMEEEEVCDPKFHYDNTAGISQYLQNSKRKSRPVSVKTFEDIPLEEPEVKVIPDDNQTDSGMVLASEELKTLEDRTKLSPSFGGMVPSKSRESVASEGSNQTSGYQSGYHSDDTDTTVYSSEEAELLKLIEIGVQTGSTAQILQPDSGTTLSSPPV

Row | IC50 [1] [µM] | EC50 [2] [µM] | IC50 [3] [nM] | IC50 ([5]; read-out: IC50 (μM) PIM3) [µM] | IC50 ([6]; read-out: IC50 (μM) PIM2) [µM] | EC50 ([7]; read-out: EC50 (μM) KMS11) [µM] | IC50 ([8]; read-out: IC50 (μM) PIM1) [µM] | EC50 ([9]; read-out: EC50 (μM) MM1.s) [µM] | EC50 ([7]; read-out: KMS11 EC50) [µM] | IC50 ([8]; read-out: PIM1 IC50) [µM] | EC50 ([9]; read-out: MM1.s EC50) [µM] | IC50 ([5]; read-out: PIM3 IC50) [µM] | IC50 ([6]; read-out: PIM2 IC50) [µM] | Structure (SMILES) | EC50 [4] [µM]
1 |  |  |  | < 1 | < 1 | < 1 | < 1 | 1 to 5 |  |  |  |  |  | CCCOc1ccc(F)c(-c2nc(C(=O)Nc3cnccc3N3CCC[C@H](N)C3)c(N)cc2F)c1F [Example 494, 3-Amino-6-(2,6-difluoro-3-propoxy-phenyl)-5-fluoro-pyridine-2-carboxylic acid (3-amino-3,4,5,6-tetrahydro-2H-[1,4′]bipyridinyl-3′-yl)-amide] | 
2 |  | 1 to 5 |  | < 1 | < 1 |  | < 1 |  |  |  |  |  |  | Nc1ccc(-c2cc(C(=O)Nc3ccccc3)ccc2F)nc1C(=O)Nc1cnccc1N1CCC[C@H](N)C1 [Example 323, 3-amino-6-(2-fluoro-5-phenylcarbamoyl-phenyl)-pyridine-2-carboxylic acid ((S)-3-amino-3,4,5,6-tetra-hydro-2H-[1,4′]bipyridinyl-3′-yl)-amide] | < 1
3 |  |  |  |  |  |  |  |  | 1 to 5 | < 1 | 1 to 5 | < 1 | < 1 | N[C@H]1CCCN(c2ccncc2NC(=O)c2nc(-c3c(F)cccc3F)ccc2F)C1 [Example 570, 6-(2,6-Difluoro-phenyl)-3-fluoro-pyridine-2-carboxylic acid (3-amino-3,4,5,6-tetrahydro-2H-[1,4′]bipyridinyl-3′-yl)-amide] | 
4 |  |  |  | < 1 | < 1 | 1 to 5 | < 1 | 1 to 5 |  |  |  |  |  | Nc1cc(F)c(-c2ccccc2F)nc1C(=O)Nc1cnccc1N1CCC[C@H](N)C1 [Example 517, 3-Amino-5-fluoro-6-(2-fluoro-phenyl)-pyridine-2-carboxylic acid (3-amino-3,4,5,6-tetrahydro-2H-[1,4′]bipyridinyl-3′-yl)-amide] | 
5 | < 1 | < 1 | < 1000 | < 1 | < 1 |  | < 1 |  |  |  |  |  |  | N#Cc1ccccc1-c1cnc(N)c(C(=O)Nc2cnccc2N2CCCC(N)C2)n1 (stereo not drawn) [Example 345, 3-amino-6-(2-cyano-phenyl)-pyrazine-2-carboxylic acid (3-amino-3,4,5,6-tetrahydro-2H-[1,4′]bipyridinyl-3′-yl)-amide] | < 1
6 |  | 1 to 5 | < 1000 | < 1 |  |  | < 1 |  |  |  |  |  |  | Nc1ncc(-c2ccccc2C(F)(F)F)nc1C(=O)Nc1cnccc1N1CCCC(N)C1 (stereo not drawn) [Example 348, 3-amino-6-(2-trifluoromethyl-phenyl)-pyrazine-2-carboxylic acid (3-amino-3,4,5,6-tetra-hydro-2H-[1,4′]bipyridinyl-3′-yl)-amide] | < 1
7 | > 25 | > 10 | 10000 to 25000 | < 1 | < 1 |  | < 1 |  |  |  |  |  |  | Nc1ccc(-c2ccncc2Cl)nc1C(=O)Nc1cnccc1N1CCC[C@H](N)C1 [Example 422, 5-amino-3′-chloro-[2,4′]bi-pyridinyl-6-carboxylic acid ((S)-3-amino-3,4,5,6-tetrahydro-2H-[1,4′]bipyridinyl-3′-yl)-amide] | 1 to 5
8 | > 25 | 5 to 10 | 1000 to 10000 | < 1 | < 1 |  | < 1 |  |  |  |  |  |  | Nc1ccc(-c2cccc(F)c2F)nc1C(=O)Nc1cnccc1N1CCC[C@H](N)C1 [Example 424, 3-amino-6-(2,3-difluoro-phenyl)-pyridine-2-carboxylic acid ((S)-3-amino-3,4,5,6-tetrahydro-2H-[1,4′]bipyridinyl-3′-yl)-amide] | 1 to 5
9 |  |  |  | < 1 |  | 1 to 5 | < 1 | 1 to 5 |  |  |  |  |  | N[C@H]1CCCN(c2ccncc2NC(=O)c2ccc(F)c(-c3c(F)cccc3F)n2)C1 [Example 445] | 

The next lines start with the molecule.

Row | Structure (SMILES) | IC50 [1] [µM] | EC50 [2] [µM] | IC50 [3] [nM] | IC50 ([5]; read-out: IC50 (μM) PIM3) [µM] | IC50 ([6]; read-out: IC50 (μM) PIM2) [µM] | EC50 ([7]; read-out: EC50 (μM) KMS11) [µM] | IC50 ([8]; read-out: IC50 (μM) PIM1) [µM] | EC50 ([9]; read-out: EC50 (μM) MM1.s) [µM] | EC50 ([7]; read-out: KMS11 EC50) [µM] | IC50 ([8]; read-out: PIM1 IC50) [µM] | EC50 ([9]; read-out: MM1.s EC50) [µM] | IC50 ([5]; read-out: PIM3 IC50) [µM] | IC50 ([6]; read-out: PIM2 IC50) [µM] | EC50 [4] [µM]
10 | Nc1nccnc1C(=O)Nc1cnccc1N1CCC[C@H](N)C1 [Example 176] | 1 to 10 | 1 to 5 | < 1000 | < 1 | < 1 |  |  |  |  |  |  |  |  | 1 to 5
11 | CCCOc1ccc(F)c(-c2ccc(N)c(C(=O)Nc3cnccc3N3C[C@@H](N)C[C@@H](OC)C3)n2)c1 [Example 579, 3-Amino-6-(2-fluoro-5-propoxy-phenyl)-pyridine-2-carboxylic acid (3-amino-5-methoxy-3,4,5,6-tetrahydro-2H-[1,4′]bi-pyridinyl-3′-yl)-amide] |  |  |  |  |  |  |  |  | < 1 | < 1 | 1 to 5 | < 1 | < 1 | 
12 | CO[C@@H]1C[C@H](N)CN(c2ccncc2NC(=O)c2nc(-c3c(F)cccc3F)ccc2N)C1 [Example 300, 3-Amino-6-(2,6-difluoro-phenyl)-pyridine-2-carboxylic acid (3-amino-5-methoxy-3,4,5,6-tetrahydro-2H-[1,4′]bi-pyridinyl-3′-yl)-amide] |  |  |  | < 1 | < 1 | < 1 | < 1 | < 1 |  |  |  |  |  | 
13 | CC(C)NC(=O)c1ccc(F)c(-c2ccc(N)c(C(=O)Nc3cnccc3N3C[C@@H](N)C[C@@H](F)C3)n2)c1 [Example 292, 3-Amino-6-(2-fluoro-5-isopropylcarbamoyl-phenyl)-pyridine-2-carboxylic acid (3-amino-5-fluoro-3,4,5,6-tetra-hydro-2H-[1,4′]bipyridinyl-3′-yl)-amide] |  |  |  | < 1 | < 1 | < 1 | < 1 | < 1 |  |  |  |  |  | 
14 | CCOc1ccc(Cl)c(-c2ccc(N)c(C(=O)Nc3cnccc3N3CCC[C@H](N)C3)n2)c1 [Example 322, 3-amino-6-(2-chloro-5-ethoxy-phenyl)-pyridine-2-carboxylic acid ((S)-3-amino-3,4,5,6-tetrahydro-2H-[1,4′]bi-pyridinyl-3′-yl)-amide] | > 25 | 5 to 10 | 1000 to 10000 | < 1 | < 1 |  | < 1 |  |  |  |  |  |  | < 1
15 | COc1ccncc1-c1ccc(N)c(C(=O)Nc2cnccc2N2CCC[C@H](N)C2)n1 [Example 421, 5-amino-4′-methoxy-[2,3′]bi-pyridinyl-6-carboxylic acid ((S)-3-amino-3,4,5,6-tetrahydro-2H-[1,4′]bipyridinyl-3′-yl)-amide] |  | > 10 |  | < 1 | < 1 |  | < 1 |  |  |  |  |  |  | 1 to 5
16 | Nc1nccnc1C(=O)Nc1ccncc1N1CCCC(N)C1 (stereo not drawn) [Example 173, 3-amino-N-[3-(3-aminopiperidin-1-yl)pyridin-4-yl]pyrazine-2-carboxamide] | 10 to 25 | 5 to 10 | < 1000 | < 1 | < 1 |  | < 1 |  |  |  |  |  |  | 1 to 5
